# Entries after “also recorded” stand apart in the source; their conditions may differ. Counter-ions that a name gives are not always drawn.
# What was measured:
# [1] = test system: HSV-2 (clinical isolates); assay: HSV-2 plaque assay in HFFs; format: cell-based, herpes simplex virus 2; details: nM concentrations
# Excerpt: Cell culture, virus infection and anti-viral assays.
# MDM2-IE2 interaction = assay: Co-immunoprecipitation of MDM2 and IE2 in transfected HEK293 cells; format: cell-based; details: HEK293 cells transfected with IE1/2; emetine 75 nM or GCV 5 μM, 4 h
# Experimental: Transient transfections. HEK-293 cells seeded into 10 cm petri dishes were transfected with HCMV plasmid encoding IE1 and IE2 (pRL45) plasmid, 1 μg/dish, using Lipofectamine 2000 in serum free medium. After 6 h, 10% FBS containing media was added along with 10 μM of MG132. […] Cells were then harvested to prepare lysates for IP.
# Co-immunoprecipitation (IP) and immunoblotting. Non-infected, infected or emetine-treated HFFs were treated with MG132 (10 μM) for 12 h. Cells were harvested after 24 hpi and lysed with IP buffer containing 150 mM NaCl, 50 mM Tris pH 7.5, 2 mM EDTA, 0.5% TritonX-100 and 0.5% NP-40-40. 1 mg of lysate was precleared with bead slurry for 30 min. The precleared lysates were incubated with anti-MDM2 (2 μg) antibody overnight. The antibody complexes were isolated using protein A/G beads (Santa Cruz), washed three times with 50% IP buffer. The immunoprecipitate—protein A/G beads were boiled in SDS sample buffer, and the supernatant was analyzed on SDS-PAGE gels after immunoblotting as described previously. […] Reverse IPs were performed by pulling down the precleared lysates with either anti-p53 antibody or anti-RPS14 antibody and detected with MDM2. […] In other experiments, transfected or treated HEK293 cell lysates were pulled-down with anti-IE2 antibody and detected with anti-MDM2 antibody and vice-versa for reverse IP.
# MCMV = MCMV infection model in BALB/c mice; format: in vivo, Murid Herpesvirus (MCMV) in BALB/c mice
# Experimental: Control mice received 0.1 ml of saline intraperitoneally. […] Control and infected mice received equivalent volumes of saline. […] Mice were sacrificed at day 14 after infection. Blood samples were collected by cardiac puncture. […] Two million MEFs were seeded into 24 well plates. […] Plaques were counted after three days. […] The gB primers were: F: 5′ […] 3′ (SEQ ID NO:1); R: 5′ […] 3′(SEQ ID NO:2) (43).
# protein synthesis = details: at concentration that inhibit CMV replication in vitro; cited from earlier work
# in vivo = assay: in vivo
# Experimental: Pharmacokinetics and CMV inhibition in mice. […] The dosing solution was prepared in saline with a dosing volume of 10 mL/kg. Blood and tissue samples including liver, lung and spleen were collected at 0, 0.083, 0.25, 0.5, 0.75, 1, 2, 3, 4, 7, 24, 30, 48, 72 and 96 hr. […] Pharmacokinetic parameters (Cmax, Tmax, AUC and t1/2) were calculated with a non-compartmental approach using the Pharsight WinNonLin software (Ver. 6.4). The experimental procedures were approved by the Animal Care and Use Committee of Division of Veterinary Resources, NIH.
# [2] = test system: pp28-luciferase HCMV Towne; assay: Add on and removal studies; format: cell-based, human cytomegalovirus (HCMV); details: luciferase at 72 hpi
# Experimental: Add on and removal studies. […] For time-of-removal studies, the medium containing the compounds was removed at 0, 6, 12, 24, 36 and 48 hpi, cells were washed three times with phosphate-buffered saline (PBS), and drug-free medium was added. Luciferase activity was determined at 72 hpi.
# p21 mRNA = assay: qRT-PCR for p21 in infected HFFs; format: cell-based, human; details: contact-inhibited cells, emetine 75 nM, p<0.01
# Excerpt: RNA isolation and real time quantitative reverse transcriptase (qRT) PCR. Total RNA was isolated from cultured cells using RNeasy Mini kit (Qiagen, Georgetown, MD) according to manufacturer's instructions. RevertAid first strand cDNA synthesis kit (Fermentas life sciences, Cromwell Park, MD) was used to synthesize first strand cDNA from total RNA using oligo-dT primers. Negative reverse-transcriptase (−RT) reactions were included to ensure the specificity of qRT-PCR reactions. Synthesis of first strand cDNA from mRNA template was carried out at 42° C. for 1 h. Quantitative RT-PCR (qRT-PCR) was performed using specific primers for p21 (F: 5′ […] 3′ (SEQ ID NO:3); R: 5′ […] 3′) (SEQ ID NO:4) and SYBR green (Fermentas life science) with two-step cycling protocol (95° C. for 15 s, 60° C. for 1 min). Reactions were performed in triplicates and GAPDH (F: 5′ […] 3′ (SEQ ID NO:5); R: 5′ […] 3′ (SEQ ID NO:6)) was used as the internal control.
# [3] = Cell viability (MTT) assay; details: human, non-infected HFFs
# [4] = test system: HCMV proteins IE1/2, UL44 and pp65; assay: Western blot of HCMV protein expression; format: cell-based, human cytomegalovirus (HCMV); details: 72 hpi
# Excerpt: SDS-polyacrylamide gel electrophoresis and immunoblot analysis. Cell lysates were quantified for protein content using bicinchoninic acid (BCA) protein assay kit (Pierce Chemical, Rockford, IL). Equivalent amount of proteins were used for Western blot analysis as described previously. Protein bands were visualized by chemiluminescence using Western Blotting Luminol Reagent (Santa Cruz Biotechnology, Santa Cruz, CA). The following antibodies were used for detection of HCMV proteins: mouse anti-IE1 and IE2, (MAb810); mouse anti-UL44 (Santa Cruz biotechnology Santa Cruz, CA); mouse monoclonal anti-pp65 (Vector laboratories, Burlingame, CA); mouse monoclonal anti-β-actin antibody (Millipore, Billerica, MA); rabbit polyclonal anti-RPS14 and mouse monoclonal anti-MDM2 (AbCam, Cambridge, UK), mouse monoclonal anti-p53 (Santa Cruz, CA); horseradish peroxidase (HRP)-conjugated goat anti-rabbit IgG (Cell Signaling); and HRP-conjugated sheep anti-mouse IgG, (GE Healthcare, Waukesha, WI). For detection of co-immunoprecipitated proteins, protein A-HRP conjugate (Cell Signaling Technologies, Beverly, MA) was used as secondary antibody to eliminate the interfering IgG bands.
structure (smiles),measurement,setting,value
"CC[C@H]1CN2CCc3cc(OC)c(OC)cc3[C@@H]2C[C@@H]1C[C@H]1NCCc2cc(OC)c(OC)cc21 [emetine, emetine dihydrochloride hydrate]",inhibition of HSV-2,[1],inhibited
same,interaction of MDM2 and IE2,MDM2-IE2 interaction,significantly decreased
same,MCMV inhibition in mice,"MCMV; oral every 72 h / three days, low dose 0.1 mg/kg, dihydrochloride hydrate, 0.1 mg/kg",inhibited; also recorded: high efficacy; also recorded: inhibits mouse CMV replication; also recorded: effectively suppressed MCMV
same,difference in efficacy between 0.1 and 1 mg/kg,"MCMV; oral, every three days",no significant difference
same,inhibition of protein synthesis,protein synthesis,no inhibition of protein synthesis
same,tolerability in mice,,well-tolerated
same,Cmax,"in vivo; male, BALB/c, mouse, in vivo, 0.1 mg/kg",1.4 ng/mL
same,half-life,"in vivo; male, BALB/c, mouse, in vivo, ip, 0.1 mg/kg, half-life, single intraperitoneal administration 0.1 mg/kg, mice",32 h
same,half-life,"in vivo; male, BALB/c, mouse, in vivo, po, 1 mg/kg, half-life, single oral administration 1 mg/kg, male BALB/c mice",32 h
same,half-life,"in vivo; single oral administration 1 mg/kg, male BALB/c mice, dihydrochloride hydrate, 1 mg/kg",24 h
same,time of addition after which activity against HCMV replication is lost,[2]; add-on,> 12 h
same,time compound is required to fully inhibit HCMV,[2]; removal assay,at least 24 h
same,increase in p21 mRNA,p21 mRNA; 24 hpi,5.4 fold
same,increase in p21 mRNA,p21 mRNA; 72 hpi,6.7 fold
same,CC50 at 72 h,[3],8 µM
same,"expression of HCMV proteins IE1/2, UL44 and pp65",[4],significantly reduced
same,viral UL44 and pp65 expression at high cell density,"[4]; emetine 75 nM, vs infected untreated cells, not at lower cell density",significant reduction
